Results as given in patent publication US20210255193A1, “LYSINE REACTIVE PROBES AND USES THEREOF” (The Scripps Research Institute, priority 2017, published 2021).

Legend:
Experiment in all cases: competitive isoTOP-ABPP
Format in all cases: binding
[1] = target: T1, WARS Tryptophan--tRNA ligase, cytoplasmic (Homo sapiens, UniProt P23381); settings: for isoTOP-ABPP reactivity ratio at lysine P23381_K256 / isoTOP-ABPP ratio (R) at liganded lysine P23381_K256: 50 uM, in vitro; for isoTOP-ABPP reactivity ratio at lysine P23381_K256: 231 sol; for isoTOP-ABPP ratio (R) at liganded lysine P23381_K256: sol, 231
T1 construct: isoTOP-ABPP experiments performed in cell lysates (in vitro); endogenous in cells; host or cells: soluble proteome of human cancer cell lines (MDA-MB-231; Ramos and Jurkat also prepared)
T1 sequence (P23381 1-471): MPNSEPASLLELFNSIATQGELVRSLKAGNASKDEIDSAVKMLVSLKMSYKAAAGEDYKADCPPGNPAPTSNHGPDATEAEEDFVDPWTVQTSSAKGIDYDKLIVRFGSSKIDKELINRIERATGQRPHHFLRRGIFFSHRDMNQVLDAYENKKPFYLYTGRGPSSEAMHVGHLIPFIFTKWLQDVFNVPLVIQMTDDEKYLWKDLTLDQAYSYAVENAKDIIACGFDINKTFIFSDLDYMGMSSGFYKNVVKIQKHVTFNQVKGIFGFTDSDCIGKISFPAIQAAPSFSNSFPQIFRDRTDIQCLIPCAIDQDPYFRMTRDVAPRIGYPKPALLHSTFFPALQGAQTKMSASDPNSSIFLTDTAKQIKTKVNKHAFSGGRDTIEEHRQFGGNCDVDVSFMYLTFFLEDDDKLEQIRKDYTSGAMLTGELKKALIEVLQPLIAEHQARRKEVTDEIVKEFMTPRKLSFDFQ
Procedure, shortened: (§1)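 Cell lysate treated in vitro with fragments (50 μM activated esters, 100 μM guanidinylating agents) or DMSO, labelled 1 h at ambient temperature with 0.1 mM STP-alkyne, CuAAC-tagged with light/heavy TEV tags, analysed by MS. R = DMSO/compound MS1 peak-area ratio; lysines with R≥4 called liganded.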

[2] = target: T2, XRCC6 X-ray repair cross-complementing protein 6 (Homo sapiens, UniProt P12956); settings: for isoTOP-ABPP reactivity ratio at lysine P12956_K351 / isoTOP-ABPP ratio (R) at liganded lysine P12956_K351: 50 uM, in vitro; for isoTOP-ABPP reactivity ratio at lysine P12956_K351: 231 sol; for isoTOP-ABPP ratio (R) at liganded lysine P12956_K351: sol, 231; for isoTOP-ABPP ratio, lysine P12956_K351: 50 uM_231_sol_in vitro
T2 construct: isoTOP-ABPP experiments performed in cell lysates (in vitro); endogenous in cells; host or cells: soluble proteome of human cancer cell lines (MDA-MB-231; Ramos and Jurkat also prepared)
Procedure, shortened: as §1

[3] = target: T3, NAA25 N-alpha-acetyltransferase 25, NatB auxiliary subunit (Homo sapiens, UniProt Q14CX7); settings: for isoTOP-ABPP reactivity ratio at lysine Q14CX7_K575 / isoTOP-ABPP ratio (R) at liganded lysine Q14CX7_K575: 50 uM, in vitro; for isoTOP-ABPP reactivity ratio at lysine Q14CX7_K575: 231 sol; for isoTOP-ABPP ratio (R) at liganded lysine Q14CX7_K575: sol, 231; for isoTOP-ABPP ratio, lysine Q14CX7_K575: 50 uM_231_sol_in vitro
T3 construct: isoTOP-ABPP experiments performed in cell lysates (in vitro); endogenous in cells; host or cells: soluble proteome of human cancer cell lines (MDA-MB-231; Ramos and Jurkat also prepared)
Procedure, shortened: as §1

[4] = target: T4, CUL2 Cullin-2 (Homo sapiens, UniProt Q13617); settings: for isoTOP-ABPP reactivity ratio at lysine Q13617_K489 / isoTOP-ABPP ratio (R) at liganded lysine Q13617_K489: 50 uM, in vitro; for isoTOP-ABPP reactivity ratio at lysine Q13617_K489: 231 sol; for isoTOP-ABPP ratio (R) at liganded lysine Q13617_K489: sol, 231; for isoTOP-ABPP ratio, lysine Q13617_K489: 50 uM_231_sol_in vitro
T4 construct: isoTOP-ABPP experiments performed in cell lysates (in vitro); endogenous in cells; host or cells: soluble proteome of human cancer cell lines (MDA-MB-231, Ramos, Jurkat)
Procedure, shortened: as §1

[5] = target: T5, G6PD Glucose-6-phosphate 1-dehydrogenase (Homo sapiens, UniProt P11413); settings: for isoTOP-ABPP reactivity ratio at lysine P11413_K171 / isoTOP-ABPP ratio (R) at liganded lysine P11413_K171: 50 uM, in vitro; for isoTOP-ABPP reactivity ratio at lysine P11413_K171: 231 sol; for isoTOP-ABPP ratio (R) at liganded lysine P11413_K171: sol, 231; for isoTOP-ABPP ratio, lysine P11413_K171: 50 uM_231_sol_in vitro
T5 construct: isoTOP-ABPP experiments performed in cell lysates (in vitro); endogenous in cells; host or cells: MDA-MB-231 soluble lysate
Procedure, shortened: as §1

[6] = target: T6, OLA1 Obg-like ATPase 1 (Homo sapiens, UniProt Q9NTK5); settings: for isoTOP-ABPP reactivity ratio at lysine Q9NTK5_K248 / isoTOP-ABPP ratio (R) at liganded lysine Q9NTK5_K248: 50 uM, in vitro; for isoTOP-ABPP reactivity ratio at lysine Q9NTK5_K248: 231 sol; for isoTOP-ABPP ratio (R) at liganded lysine Q9NTK5_K248: sol, 231; for isoTOP-ABPP ratio, lysine Q9NTK5_K248: 50 uM_231_sol_in vitro
T6 construct: endogenous in cells; host or cells: MDA-MB-231 (soluble fraction of lysate)
Procedure, shortened: as §1

[7] = target: T7, TRMT10C Mitochondrial ribonuclease P protein 1 (Homo sapiens, UniProt Q7L0Y3); settings: for isoTOP-ABPP reactivity ratio at lysine Q7L0Y3_K325 / isoTOP-ABPP ratio (R) at liganded lysine Q7L0Y3_K325: 50 uM, in vitro; for isoTOP-ABPP reactivity ratio at lysine Q7L0Y3_K325: 231 sol; for isoTOP-ABPP ratio (R) at liganded lysine Q7L0Y3_K325: sol, 231; for isoTOP-ABPP ratio, lysine Q7L0Y3_K325: 50 uM_231_sol_in vitro
T7 construct: isoTOP-ABPP experiments performed in cell lysates (in vitro); endogenous in cells; host or cells: soluble proteome of human cancer cell lines (MDA-MB-231; Ramos and Jurkat also prepared)
T7 sequence (Q7L0Y3 40-403): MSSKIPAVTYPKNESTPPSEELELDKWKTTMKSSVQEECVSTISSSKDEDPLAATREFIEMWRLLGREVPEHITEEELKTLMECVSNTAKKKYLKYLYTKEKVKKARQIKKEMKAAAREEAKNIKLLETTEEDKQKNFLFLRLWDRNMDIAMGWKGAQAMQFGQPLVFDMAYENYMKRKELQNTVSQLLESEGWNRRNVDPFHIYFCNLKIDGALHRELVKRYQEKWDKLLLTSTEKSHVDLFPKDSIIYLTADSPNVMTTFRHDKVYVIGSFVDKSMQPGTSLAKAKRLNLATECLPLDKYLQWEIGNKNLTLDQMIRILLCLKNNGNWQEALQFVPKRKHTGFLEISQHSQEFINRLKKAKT
Procedure, shortened: as §1

T5 sequence (P11413 whole entry): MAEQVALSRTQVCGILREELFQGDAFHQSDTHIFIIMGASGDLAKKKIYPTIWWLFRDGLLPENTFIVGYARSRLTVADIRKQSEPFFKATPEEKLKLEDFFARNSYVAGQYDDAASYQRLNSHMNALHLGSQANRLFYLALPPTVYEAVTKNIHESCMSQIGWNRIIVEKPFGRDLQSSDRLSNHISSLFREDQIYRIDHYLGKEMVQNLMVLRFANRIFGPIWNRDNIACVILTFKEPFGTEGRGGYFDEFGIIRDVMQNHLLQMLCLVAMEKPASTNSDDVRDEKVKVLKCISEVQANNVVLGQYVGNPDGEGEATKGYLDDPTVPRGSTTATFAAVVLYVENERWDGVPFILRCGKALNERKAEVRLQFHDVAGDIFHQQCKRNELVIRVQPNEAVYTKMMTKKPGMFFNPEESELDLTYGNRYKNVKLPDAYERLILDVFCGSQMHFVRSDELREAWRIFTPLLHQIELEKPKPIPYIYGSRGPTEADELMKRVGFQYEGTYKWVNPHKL
T3 sequence (Q14CX7 whole entry): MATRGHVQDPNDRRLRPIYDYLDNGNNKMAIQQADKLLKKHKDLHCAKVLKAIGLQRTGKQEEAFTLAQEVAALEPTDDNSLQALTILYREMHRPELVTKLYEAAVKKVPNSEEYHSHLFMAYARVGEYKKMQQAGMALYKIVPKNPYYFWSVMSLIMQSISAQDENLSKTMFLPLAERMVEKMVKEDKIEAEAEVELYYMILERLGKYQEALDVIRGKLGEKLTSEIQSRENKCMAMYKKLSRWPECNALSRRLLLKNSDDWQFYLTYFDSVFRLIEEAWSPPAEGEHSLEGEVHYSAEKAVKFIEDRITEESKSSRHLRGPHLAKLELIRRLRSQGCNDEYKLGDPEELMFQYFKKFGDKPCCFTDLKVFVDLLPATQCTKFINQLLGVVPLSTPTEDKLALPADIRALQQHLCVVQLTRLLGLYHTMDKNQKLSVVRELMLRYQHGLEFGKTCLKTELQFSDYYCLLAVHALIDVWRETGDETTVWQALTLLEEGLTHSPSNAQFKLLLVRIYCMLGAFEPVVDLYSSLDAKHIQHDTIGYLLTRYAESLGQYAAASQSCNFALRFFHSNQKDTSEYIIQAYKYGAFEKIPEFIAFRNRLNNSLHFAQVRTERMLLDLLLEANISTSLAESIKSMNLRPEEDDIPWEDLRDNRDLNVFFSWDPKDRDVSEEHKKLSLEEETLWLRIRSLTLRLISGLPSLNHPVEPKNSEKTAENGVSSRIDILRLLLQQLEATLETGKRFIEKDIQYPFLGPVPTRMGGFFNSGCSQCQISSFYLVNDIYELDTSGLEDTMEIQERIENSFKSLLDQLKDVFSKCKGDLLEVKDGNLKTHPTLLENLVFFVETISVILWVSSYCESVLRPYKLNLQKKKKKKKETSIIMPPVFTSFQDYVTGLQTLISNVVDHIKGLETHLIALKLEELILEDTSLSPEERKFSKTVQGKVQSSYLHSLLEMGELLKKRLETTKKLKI
T4 sequence (Q13617 whole entry): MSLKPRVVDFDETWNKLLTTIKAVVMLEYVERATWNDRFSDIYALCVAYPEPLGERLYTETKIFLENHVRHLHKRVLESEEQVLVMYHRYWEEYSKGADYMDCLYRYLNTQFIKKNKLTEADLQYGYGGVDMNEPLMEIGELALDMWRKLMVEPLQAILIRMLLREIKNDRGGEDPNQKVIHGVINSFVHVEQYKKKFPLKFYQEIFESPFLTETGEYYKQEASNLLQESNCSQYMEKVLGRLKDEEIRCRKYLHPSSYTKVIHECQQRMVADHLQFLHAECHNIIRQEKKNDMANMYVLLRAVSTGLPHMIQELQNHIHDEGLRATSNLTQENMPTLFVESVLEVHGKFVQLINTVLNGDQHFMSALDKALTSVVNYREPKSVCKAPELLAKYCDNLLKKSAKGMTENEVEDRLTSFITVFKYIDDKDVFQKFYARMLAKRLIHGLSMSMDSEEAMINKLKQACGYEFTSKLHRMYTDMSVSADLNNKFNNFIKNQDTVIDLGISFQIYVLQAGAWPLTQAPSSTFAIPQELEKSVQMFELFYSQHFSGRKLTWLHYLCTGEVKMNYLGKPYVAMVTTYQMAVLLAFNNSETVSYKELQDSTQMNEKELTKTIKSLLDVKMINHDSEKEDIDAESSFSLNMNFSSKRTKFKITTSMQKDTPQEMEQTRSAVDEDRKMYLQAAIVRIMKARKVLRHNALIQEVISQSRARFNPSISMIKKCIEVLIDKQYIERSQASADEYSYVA
T2 sequence (P12956 2-609 limits assumed): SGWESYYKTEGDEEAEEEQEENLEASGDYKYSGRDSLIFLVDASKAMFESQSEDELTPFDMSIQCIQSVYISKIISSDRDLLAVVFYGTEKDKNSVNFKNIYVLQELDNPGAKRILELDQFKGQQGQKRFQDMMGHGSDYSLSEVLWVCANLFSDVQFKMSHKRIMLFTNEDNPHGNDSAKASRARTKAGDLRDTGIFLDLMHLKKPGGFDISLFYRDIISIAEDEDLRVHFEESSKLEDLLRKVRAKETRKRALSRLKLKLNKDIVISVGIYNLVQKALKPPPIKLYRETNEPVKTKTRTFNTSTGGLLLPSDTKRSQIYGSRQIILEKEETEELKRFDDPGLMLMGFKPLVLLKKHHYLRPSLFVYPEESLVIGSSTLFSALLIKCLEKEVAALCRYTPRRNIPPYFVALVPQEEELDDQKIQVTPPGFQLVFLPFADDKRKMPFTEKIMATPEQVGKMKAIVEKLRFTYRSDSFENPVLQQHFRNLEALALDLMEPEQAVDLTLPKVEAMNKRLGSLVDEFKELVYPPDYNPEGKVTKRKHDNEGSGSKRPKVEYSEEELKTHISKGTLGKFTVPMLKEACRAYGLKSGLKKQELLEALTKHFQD
T2 sequence (P13010 2-732 partner limits assumed): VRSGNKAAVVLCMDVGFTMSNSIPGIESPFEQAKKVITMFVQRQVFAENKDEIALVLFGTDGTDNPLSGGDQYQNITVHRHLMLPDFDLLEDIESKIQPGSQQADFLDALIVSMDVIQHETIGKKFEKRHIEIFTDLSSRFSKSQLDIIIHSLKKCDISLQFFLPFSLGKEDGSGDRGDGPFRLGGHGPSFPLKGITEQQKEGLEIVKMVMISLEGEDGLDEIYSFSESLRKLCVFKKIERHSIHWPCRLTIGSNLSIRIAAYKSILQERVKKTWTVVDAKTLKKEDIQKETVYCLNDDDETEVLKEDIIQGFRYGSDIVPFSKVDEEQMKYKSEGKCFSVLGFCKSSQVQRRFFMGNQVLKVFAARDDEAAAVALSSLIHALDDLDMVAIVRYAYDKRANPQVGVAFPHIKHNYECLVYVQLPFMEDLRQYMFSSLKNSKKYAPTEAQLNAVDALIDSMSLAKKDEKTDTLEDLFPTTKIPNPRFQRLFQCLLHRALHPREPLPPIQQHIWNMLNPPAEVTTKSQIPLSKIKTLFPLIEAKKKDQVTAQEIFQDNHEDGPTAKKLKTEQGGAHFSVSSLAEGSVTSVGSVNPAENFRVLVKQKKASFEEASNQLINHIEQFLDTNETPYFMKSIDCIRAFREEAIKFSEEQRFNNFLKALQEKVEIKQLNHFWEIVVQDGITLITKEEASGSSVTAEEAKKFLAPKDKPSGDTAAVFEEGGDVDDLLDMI

SMILES | isoTOP-ABPP ratio (R) at liganded lysine P23381_K256 [1] | isoTOP-ABPP ratio (R) at liganded lysine P12956_K351 [2] | isoTOP-ABPP ratio (R) at liganded lysine Q14CX7_K575 [3] | isoTOP-ABPP ratio (R) at liganded lysine Q13617_K489 [4] | isoTOP-ABPP ratio (R) at liganded lysine P11413_K171 [5] | isoTOP-ABPP ratio (R) at liganded lysine Q9NTK5_K248 [6] | isoTOP-ABPP ratio (R) at liganded lysine Q7L0Y3_K325 [7] | other results
Cn1cc(CC(=O)Oc2ccc([N+](=O)[O-])cc2[N+](=O)[O-])c2ccccc21 [fragment 32, 2,4-Dinitrophenyl 2-(1-methyl-1H-indol-3-yl)acetate] |  |  |  |  |  |  |  | isoTOP-ABPP reactivity ratio at lysine P23381_K256 [1]: 0.9; isoTOP-ABPP reactivity ratio at lysine P12956_K351 [2]: 13.4; isoTOP-ABPP reactivity ratio at lysine Q14CX7_K575 [3]: 2.4; isoTOP-ABPP reactivity ratio at lysine Q13617_K489 [4]: 1.1; isoTOP-ABPP reactivity ratio at lysine P11413_K171 [5]: 0.9; isoTOP-ABPP reactivity ratio at lysine Q9NTK5_K248 [6]: 1.0; isoTOP-ABPP reactivity ratio at lysine Q7L0Y3_K325 [7]: 1.0
COc1cc(CCC(=O)Oc2ccc([N+](=O)[O-])cc2[N+](=O)[O-])cc(OC)c1OC [fragment 33, 2,4-Dinitrophenyl 3-(3,4,5-trimethoxyphenyl)propanoate] |  |  |  |  |  |  |  | isoTOP-ABPP reactivity ratio at lysine P23381_K256 [1]: 0.8; isoTOP-ABPP reactivity ratio at lysine P12956_K351 [2]: 2.5; isoTOP-ABPP reactivity ratio at lysine Q14CX7_K575 [3]: 1.1; isoTOP-ABPP reactivity ratio at lysine Q13617_K489 [4]: 1.2; isoTOP-ABPP reactivity ratio at lysine P11413_K171 [5]: 16.3; isoTOP-ABPP reactivity ratio at lysine Q9NTK5_K248 [6]: 1.0; isoTOP-ABPP reactivity ratio at lysine Q7L0Y3_K325 [7]: 0.9
O=C(Oc1ccc([N+](=O)[O-])cc1[N+](=O)[O-])c1ccc2ccccc2n1 [fragment 35, 2,4-Dinitrophenyl quinoline-2-carboxylate] | 1.1 | 1.5 | 0.9 | 0.9 | 1.7 | 1.0 | 1.0 | 
O=C(Oc1ccc([N+](=O)[O-])cc1[N+](=O)[O-])c1ccc(-c2ccccc2)cc1 [fragment 37, 2,4-Dinitrophenyl [1,1′-biphenyl]-4-carboxylate] | 0.4 | 1.3 | 0.9 | 1.0 | 0.9 | 0.9 | 1.0 | 
O=C(Oc1ccc([N+](=O)[O-])cc1[N+](=O)[O-])c1ccc(Oc2ccccc2)cc1 [fragment 39, 2,4-Dinitrophenyl 4-phenoxybenzoate] | 0.9 | 1.6 | 1.0 | 20.0 | 1.1 | 0.9 | 0.9 | 
O=C(Oc1ccc([N+](=O)[O-])cc1[N+](=O)[O-])c1ccccc1Nc1cccc(C(F)(F)F)c1 [fragment 40, 2,4-Dinitrophenyl 2-((3-(trifluoromethyl)phenyl)amino)benzoate] | 1.1 | 1.0 | 0.8 | 20.0 | 1.9 | 0.9 | 0.9 | 
N#Cc1ccc(C(=O)Oc2ccc([N+](=O)[O-])cc2[N+](=O)[O-])cc1 [fragment 44, 2,4-Dinitrophenyl 4-cyanobenzoate] |  |  |  |  |  |  |  | isoTOP-ABPP ratio, lysine P23381_K256 ([1]; 50 uM_231_sol_in vitro): 1.1; isoTOP-ABPP ratio, lysine P12956_K351 [2]: 1.1; isoTOP-ABPP ratio, lysine Q14CX7_K575 [3]: 0.8; isoTOP-ABPP ratio, lysine Q13617_K489 [4]: 0.8; isoTOP-ABPP ratio, lysine P11413_K171 [5]: 1.3; isoTOP-ABPP ratio, lysine Q9NTK5_K248 [6]: 1.1; isoTOP-ABPP ratio, lysine Q7L0Y3_K325 [7]: 1.3
NC(=O)c1cc(C(F)(F)F)cc(C(F)(F)F)c1 [fragment 51, reference compound] |  |  |  |  |  |  |  | isoTOP-ABPP ratio, lysine P12956_K351 [2]: 0.8; isoTOP-ABPP ratio, lysine Q14CX7_K575 [3]: 1.0; isoTOP-ABPP ratio, lysine Q13617_K489 [4]: 1.1; isoTOP-ABPP ratio, lysine P11413_K171 [5]: 0.9; isoTOP-ABPP ratio, lysine Q9NTK5_K248 [6]: 0.9; isoTOP-ABPP ratio, lysine Q7L0Y3_K325 [7]: 0.9
